Legend:
[1] = tested on: O3-induced pulmonary inflammation; experiment: O3-induced pulmonary inflammation model, parenteral administration, BALF analysis; type: in vivo, mice; settings: 10 mg/kg, BALF 24 h post exposure, FIG. 2, pilot study
Experimental: Using the O3-induced pulmonary inflammation model, we have evaluated and compared the anti-inflammatory efficacy of PC-Indomethacin vs indomethacin administered parenterally at a dose of 10 mg/kg vs vehicle control and evaluated the BALF 24 h post exposure. The white cell counts and protein concentrations of the BALF of the test groups are depicted in FIG. 2.

[2] = Storage stability of PC-NSAID oil and reconstituted dispersions; type: physicochemical; settings: dispersed in sodium bicarbonate buffer, stored at 4° C., FIG. 8
Experimental: The proprietary method used to prepare the purified PC-NSAIDs takes advantage of the fact that pre-dissolving indomethacin (or ibuprofen) in acetone beforehand markedly increases the solubility of PC in this polar solvent (normally PC has a very limited solubility in acetone). Thereby the NSAID and purified soy PC (Lipoid S-100) (1:1 PC to NSAID molar ratio, which correspond to 2:1 PC to NSAID weight ratio) are dissolved in acetone, in this order and incubated at 40° C. until the solution clarifies. This solution is then placed in a rotor-evaporator for at least 12 hours to remove the volatile solvent. In the case of disaturated PC, such as dipalmitoyl-PC (DPPC) (which is the major phospholipid in pulmonary surfactant) we have learned that it is important to have 2-4 times more NSAID than PC (on a molar basis) to drive the solubility of the DPPC into the polar solvent. […] With the advice of the soy lecithin manufacturer (Lipoid Inc., Heidelberg, Germany) we are transitioning to their more purified soy lecithin product (Lipoid S-100) which already is approved for parenteral administration. […] FIGS. 10-13 indicate that these PC-NSAID formulations can readily be aerosolized into particles having a diameter between 2-6 μm for deep lung deposition.

[3] = tested on: O3-induced pulmonary inflammation; experiment: O3-induced lung injury/pulmonary inflammation model, endotracheal administration, BALF analysis; type: in vivo, mice
Experimental: Because of the clinical relevance of environmental ozone exposure, and the experience of our team, with the murine model of O3-induced LI, pulmonary inflammation, and/or AHR, we have evaluated the anti-inflammatory efficacy of our PC-NSAID formulations using this robust model system. In these studies, all mice were pre-dosed (via endotracheal administration) with vehicle, indomethacin (at a dose range from 2 mg/kg), ibuprofen (5 mg/kg) or the equivalent (NSAID) doses of the PC-NSAID compositions, 1 h before and 1.5 hours after being exposed to either filtered room air or O3 (2 ppm) for 3 h and then 6 h or 24 h following the cessation of exposure airway pulmonary injury and inflammation were assessed by euthanizing the animals and collecting bronchoalveolar lavage fluid (BALF) using standard techniques. The O3 exposure protocol were chosen to allow for comparison with data of other investigators studying acute O3-induced pulmonary inflammation/AHR in mice.
In these studies, all mice were pre-dosed with vehicle (PBS), NSAID (indomethacin or ibuprofen) (at a dose of 2 mg NSAID/kg), or the equivalent (NSAID) dose of the corresponding PC-NSAID composition using an endo-tracheal delivery method refined that we refined (25 μL/rat) 1 h before and 90 minutes after being exposed to either filtered room air or O3 (2 ppm) for 3 h. The PC-Indomethacin composition was prepared dissolving indomethacin and purified PC (Phospholipon 90G from Lipoid) in a polar solvent (such as acetone), followed by vacuum removal of the solvent to form a purified PC-NSAID oil composition. This purified PC-NSAID oil composition is then added to an amount of phosphate buffered saline (PBS) followed by 30 minutes of sonication to provide a uniform composition at the appropriate dose for intra-tracheal administration. In some experiments, we prepared the PC-Indomethacin composition using Lipoid S-100 (a highly purified >98% soy PC product, as recommended by the manufacturer) instead of Phospholipon 90G, as well as comparing the effects of the purified soy PC products (S-100 and 90G) alone. […] Twenty-four hours (24 h) following the cessation of O3 exposure, pulmonary injury and inflammation were assessed by euthanizing the animals and collecting bronchoalveolar lavage (BALE) fluid using standard techniques. The collected BALF samples were centrifuged (with the cell pellet analyzed for white cells) and the supernatant analyzed for protein and prostaglandin E2, all markers of pulmonary inflammation.
The concentration of total BALF protein has been determined spectrophotometrically according to the Bradford protein assay procedure (Bio-Rad Laboratories, Inc.; Hercules, Calif.) while the levels of IL-6, MIP-2, PGE2 in the BALF are determined using a commercially available ELISA kit (Immunology Consultants Laboratories, Inc., Newberg, Oreg.), and MPO activity (by enzymatic kit provided CytoStore) in accordance to the manufacturer's instructions. Pulmonary inflammation has been determined by assessing the BALF cell differentials on Cytospin cytocentrifuge preparations. Hemoglobin has been measured by the benzidine assay.
We used a modification the protocol employed in pilot studies. In these earlier experiments, mice were pre-dosed with phosphate buffered saline (PBS) vehicle, the test NSAID (indomethacin or ibuprofen) (at a dose of 2 mg or 5 mg NSAID/kg), PC (4 mg/k or 10 mg/kg), respectively, or the equivalent (NSAID) dose of the PC-NSAID complex using an endotracheal delivery method refined in our lab (25 μL/rat) 1 h before and 90 minutes after being exposed to either filtered room air or O3 (2 ppm) for 3 h.

[4] = ozone-exposed mice (2 ppm, 3 h), endotracheal dosing 1 h before and 90 min after, BALF 24 h post-exposure, *=p<0.05 vs air

stability in sodium bicarbonate buffer [2]: degrades over time
Structure (SMILES): COc1ccc2c(c1)c(CC(=O)O)c(C)n2C(=O)c1ccc(Cl)cc1 [Indomethacin, indomethacin]
white cell counts and protein concentrations of the BALF (index of O3-induced pulmonary inflammation) [1]: appeared to inhibit | white cell count in BALF, effect in words ([3]; O3-exposed mice, endotracheal, BALF 24 h post, FIG. 3 (indomethacin), FIG. 9A (ibuprofen, PC is DPPC)): increased white cell count relative to vehicle | protein concentration of BALF, effect in words ([3]; O3-exposed mice, endotracheal, BALF 24 h post, FIG. 4 (indomethacin), FIG. 9B (ibuprofen, PC is DPPC)): did not cause a similar effect | PGE2 concentration in BALF, effect in words ([3]; O3-exposed mice, endotracheal, FIG. 6 (indomethacin), FIG. 9D (ibuprofen, PC is DPPC)): statistically significant effect to markedly inhibit | BALF Cell Number [3, 4]: 163 ± 53* | BALF MPO [3, 4]: 2.12 ± 0.43* ng/mL | BALF PGE2 [3, 4]: 274 ± 141 pg/mL | BALF Protein [3, 4]: 796 ± 135* μg/mL

— patent US20130281405A1, “USE OF PC-NSAIDS TO TREAT AND/OR PREVENT PULMONARY INFLAMMATION” (priority 2012, published 2013)
